Measured values taken from PubChem BioAssay AID1963434 (Molecular Pharmacology Branch, DTP, NCI, 2024).

Test system: 755483-174-R-J1-PDC complex spheroid growth, percent test/control
Assay: Anticancer human tumor 755483-174-R-J1-PDC patient-derived rhabdomyosarcoma cell line growth inhibition [Asc]
Details: for IC50: curve of first compound; for viability, T/C: stronger effect = lower value; active = viability on the fitted dose curve at most 10% of control; inactive = the rest
How it was run: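 Complex solid-tumor spheroids incorporating human endothelial and mesenchymal stem cells received single agents or combinations over half-log dilution ranges anchored to clinical Cmax.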

[1] = second compound 0.03 µM, first compound 0.0316 µM
[2] = second compound 0.03 µM, first compound 0.1 µM
[3] = second compound 0.03 µM, first compound 0.316 µM
[4] = second compound 0.03 µM, first compound 1 µM
[5] = second compound 0.0949 µM, first compound 0.0316 µM
[6] = second compound 0.0949 µM, first compound 0.1 µM
[7] = second compound 0.0949 µM, first compound 0.316 µM
[8] = second compound 0.0949 µM, first compound 1 µM
[9] = second compound 0.3 µM, first compound 0.0316 µM
[10] = second compound 0.3 µM, first compound 0.1 µM
[11] = second compound 0.3 µM, first compound 0.316 µM
[12] = second compound 0.3 µM, first compound 1 µM
[13] = second compound 0.949 µM, first compound 0.0316 µM
[14] = second compound 0.949 µM, first compound 0.1 µM
[15] = second compound 0.949 µM, first compound 0.316 µM
[16] = second compound 0.949 µM, first compound 1 µM
[17] = second compound 3 µM, first compound 0.0316 µM
[18] = second compound 3 µM, first compound 0.1 µM
[19] = second compound 3 µM, first compound 0.316 µM
[20] = second compound 3 µM, first compound 1 µM
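Note: spheroids exposed to compounds for seven days before readout.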

C=CC(=O)N1CCN(c2nc(=O)n(-c3c(C)ccnc3C(C)C)c3nc(-c4c(O)cccc4F)c(F)cc23)C(C)C1 (stereo not given) + CCN1C(C(=O)NC23CCC(C(=O)O)(CC2)CC3)C(c2cccc(Cl)c2F)C2(C(=O)Nc3cc(Cl)ccc32)C12CCCCC2
inactive: viability, T/C [1] 92.4% | viability, T/C [2] 83.7% | viability, T/C [3] 99.7% | viability, T/C [4] 88.7% | viability, T/C (second compound 0.03 µM, first compound 3.16 µM) 99.1% | viability, T/C (second compound 0.03 µM, first compound 10 µM) 65.7% | viability, T/C [5] 88.6% | viability, T/C [6] 103% | viability, T/C [7] 82.4% | viability, T/C [8] 97.8% | viability, T/C (second compound 0.0949 µM, first compound 3.16 µM) 98.4% | viability, T/C (second compound 0.0949 µM, first compound 10 µM) 78% | viability, T/C [9] 80.8% | viability, T/C [10] 80.6% | viability, T/C [11] 85.3% | viability, T/C [12] 103% | viability, T/C (second compound 0.3 µM, first compound 3.16 µM) 125% | viability, T/C (second compound 0.3 µM, first compound 10 µM) 88.8% | viability, T/C [13] 89.1% | viability, T/C [14] 82.7% | viability, T/C [15] 115% | viability, T/C [16] 100% | viability, T/C (second compound 0.949 µM, first compound 3.16 µM) 107% | viability, T/C (second compound 0.949 µM, first compound 10 µM) 83.2% | viability, T/C [17] 84.4% | viability, T/C [18] 107% | viability, T/C [19] 94.5% | viability, T/C [20] 81.2% | viability, T/C (second compound 3 µM, first compound 3.16 µM) 76.7% | viability, T/C (second compound 3 µM, first compound 10 µM) 63.4%
> 10000 nM: IC50 (second compound 0.03 µM) | IC50 (second compound 0.0949 µM) | IC50 (second compound 0.3 µM) | IC50 (second compound 0.949 µM) | IC50 (second compound 3 µM)

COc1c(OCCCN2CCOCC2)ccc2c3n(c(=NC(=O)c4cnc(N)nc4)nc12)CCN3 + CCN1C(C(=O)NC23CCC(C(=O)O)(CC2)CC3)C(c2cccc(Cl)c2F)C2(C(=O)Nc3cc(Cl)ccc32)C12CCCCC2
31.3 nM: IC50 (second compound 0.03 µM)
13.7 nM: IC50 (second compound 0.0949 µM)
41.7 nM: IC50 (second compound 3 µM)
inactive: viability, T/C (second compound 0.03 µM, first compound 0.00316 µM) 70.7% | viability, T/C (second compound 0.03 µM, first compound 0.01 µM) 70.5% | viability, T/C [1] 49.1% | viability, T/C [2] 19.2% | viability, T/C (second compound 0.0949 µM, first compound 0.00316 µM) 75.5% | viability, T/C (second compound 0.0949 µM, first compound 0.01 µM) 39.5% | viability, T/C [5] 48.5% | viability, T/C [6] 25.9% | viability, T/C [7] 25.9% | viability, T/C [8] 7.18% | viability, T/C (second compound 0.3 µM, first compound 0.00316 µM) 82.1% | viability, T/C (second compound 0.3 µM, first compound 0.01 µM) 89.5% | viability, T/C [9] 46.3% | viability, T/C [10] 22.7% | viability, T/C [11] 12.7% | viability, T/C [12] 5.77% | viability, T/C (second compound 0.949 µM, first compound 0.00316 µM) 75.7% | viability, T/C (second compound 0.949 µM, first compound 0.01 µM) 64.9% | viability, T/C [13] 45.9% | viability, T/C [14] 30.7% | viability, T/C [15] 12.1% | viability, T/C (second compound 3 µM, first compound 0.00316 µM) 53.2% | viability, T/C (second compound 3 µM, first compound 0.01 µM) 64.1% | viability, T/C [17] 59.9% | viability, T/C [18] 21.3% | viability, T/C [19] 13.8% | viability, T/C [20] 7.35%
26.2 nM: IC50 (second compound 0.949 µM)
31.2 nM: IC50 (second compound 0.3 µM)
active: viability, T/C [3] 8.52% | viability, T/C [4] 6.46% | viability, T/C [16] 9.33%
